Legend:
Caspase-3 = test: Human Caspase-3 (Active) ELISA Kit, HT29 lysate; format: cell-based; conditions: lysate of HT29 cells treated with 3g; SD ±3.03
Protocol: The test was performed on an HT29 colon adenocarcinoma cell line lysate treated with compound 3g. Cells from the HT29 line were harvested by centrifugation (non-adherent cells) and scraping from the culture flasks (adherent cells), and then the cells were washed twice with cold PBS. The supernatant was removed and discarded, and cell pellets were collected. The cell pellets were then lysed in a cell extraction container for 30 min on ice and […]. The lysate was transferred to microcentrifuge tubes and centrifuged at 13,000 rpm for 10 min at 4 °C. The supernatant was transferred to clean microcentrifuge tubes. Caspase-3 standard (active) was prepared from recombinant protein. The caspase-3 standard was reconstituted with the standard solvent solution at a concentration of 2.5 ng/mL. The contents were swirled and then left for 10 min to ensure complete dissolution. […]
In this method, a monoclonal capture antibody specific to caspase-3 (cleaved) was coated onto the wells of a 96-well plate. […] The absorbance at 450 nm was read for […] after the stop solution was added. […] Concentrations for unknown samples and controls were read from the standard curve. The intensity of the colored product was directly proportional to the concentration of the target protein present in the original specimen, and the optical density was read on a microplate reader. […]

[1] = test system: primary colon adenocarcinoma (HT29); test: MTT viability assay, HT29; format: cell-based, human; conditions: for CC50: tested 1–500 µM

## Cc1noc(N)c1-c1nc2c(NCCCN(C)C)ncnc2o1 [Compound 3g, 2-(5-Amino-3-methylisoxazol-4-yl)-7-N-[3-(N,N-dimethylamino)propyl]aminooxazolo[5,4-d]pyrimidine]
Caspase-3
  Caspase-3 concentration: 12.27 [ng/mL]
[1]; CC50 NHDF / CC50 HT29
  SI (selectivity index): 2.662
[1]; HT29, MTT
  CC50: 58.4 ± 8.75 µM
[1]; Homo sapiens, HT-29, HT29, MTT
  CC50: 58.4 µM

From PMC9569971, “New Oxazolo[5,4-d]pyrimidines as Potential Anticancer Agents: Their Design, Synthesis, and In Vitro Biological Activity Research” (International Journal of Molecular Sciences, 2022)
